# From PMC8260145 (Archives of biochemistry and biophysics, 2021)
# Where “and” joins values, the source holds several entries; their conditions need not be identical. Equal values may be shown once. Read-outs that look alike come from different tables or passages of the source.
# How the values were obtained:
# [1] = tested on: human liver microsomes; test: Inhibition of C152 metabolism in human liver microsomes; type: biochemical; settings: 30 μM C152; for IC50: read-out: IC50 ((+)-N-3-Benzylnirvanol)
# [2] = molecular target: T1, recombinant human CYP2B6 (Homo sapiens, UniProt P20813); test: Inhibition of C152 metabolism in SS
# T1 sequence (P20813 1-491): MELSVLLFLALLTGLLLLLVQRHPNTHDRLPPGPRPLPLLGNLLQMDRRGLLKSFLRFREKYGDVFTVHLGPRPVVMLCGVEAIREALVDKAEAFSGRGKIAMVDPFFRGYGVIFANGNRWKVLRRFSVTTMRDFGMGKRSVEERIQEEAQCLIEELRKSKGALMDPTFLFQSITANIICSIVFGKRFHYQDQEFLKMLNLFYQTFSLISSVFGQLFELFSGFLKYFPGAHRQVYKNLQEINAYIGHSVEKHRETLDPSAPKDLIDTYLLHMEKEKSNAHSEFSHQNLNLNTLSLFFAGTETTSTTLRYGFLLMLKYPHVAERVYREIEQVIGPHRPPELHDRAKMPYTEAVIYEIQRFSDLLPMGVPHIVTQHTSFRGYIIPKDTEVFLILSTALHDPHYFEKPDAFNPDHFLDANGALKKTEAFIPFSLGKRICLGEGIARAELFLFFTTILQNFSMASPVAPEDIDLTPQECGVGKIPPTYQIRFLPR
# [3] = molecular target: T2, recombinant human CYP3A4 (Homo sapiens, UniProt P08684); test: Inhibition of C152 metabolism in SS
# T2 sequence (P08684 2-503 limits assumed): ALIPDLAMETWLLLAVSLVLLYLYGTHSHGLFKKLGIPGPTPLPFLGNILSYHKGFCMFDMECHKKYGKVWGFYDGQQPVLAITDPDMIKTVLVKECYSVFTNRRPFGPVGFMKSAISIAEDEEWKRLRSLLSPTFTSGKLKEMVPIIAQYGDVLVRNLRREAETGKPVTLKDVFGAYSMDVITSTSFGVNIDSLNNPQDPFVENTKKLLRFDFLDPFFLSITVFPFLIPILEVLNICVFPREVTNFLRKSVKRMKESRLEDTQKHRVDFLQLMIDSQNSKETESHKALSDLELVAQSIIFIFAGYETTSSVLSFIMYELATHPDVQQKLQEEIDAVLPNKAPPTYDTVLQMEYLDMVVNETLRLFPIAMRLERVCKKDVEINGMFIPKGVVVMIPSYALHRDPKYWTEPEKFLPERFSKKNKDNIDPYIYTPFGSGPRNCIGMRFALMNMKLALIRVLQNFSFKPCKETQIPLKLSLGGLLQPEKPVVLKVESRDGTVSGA
# [4] = molecular target: T3, recombinant human CYP2C19 (Homo sapiens, UniProt P33261); test: Inhibition of C152 metabolism in SS
# T3 sequence (P33261 whole entry): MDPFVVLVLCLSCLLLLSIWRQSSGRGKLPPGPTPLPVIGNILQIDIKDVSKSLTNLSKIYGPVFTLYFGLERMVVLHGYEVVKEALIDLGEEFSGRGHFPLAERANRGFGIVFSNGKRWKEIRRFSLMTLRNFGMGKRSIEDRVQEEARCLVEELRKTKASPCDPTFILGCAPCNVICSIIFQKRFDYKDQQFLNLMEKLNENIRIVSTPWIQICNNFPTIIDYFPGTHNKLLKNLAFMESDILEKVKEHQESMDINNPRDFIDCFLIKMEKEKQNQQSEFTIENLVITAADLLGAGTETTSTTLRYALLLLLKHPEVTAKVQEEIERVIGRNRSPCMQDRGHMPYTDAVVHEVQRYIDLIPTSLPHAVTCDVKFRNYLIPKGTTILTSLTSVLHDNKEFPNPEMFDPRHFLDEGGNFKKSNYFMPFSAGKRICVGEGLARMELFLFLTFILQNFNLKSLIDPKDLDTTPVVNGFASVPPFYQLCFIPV
# [5] = molecular target: T4, recombinant human CYP3A5 (Homo sapiens, UniProt P20815); test: Inhibition of C152 metabolism in SS; settings: SS(3A5), 30 μM C152
# T4 sequence (P20815 whole entry): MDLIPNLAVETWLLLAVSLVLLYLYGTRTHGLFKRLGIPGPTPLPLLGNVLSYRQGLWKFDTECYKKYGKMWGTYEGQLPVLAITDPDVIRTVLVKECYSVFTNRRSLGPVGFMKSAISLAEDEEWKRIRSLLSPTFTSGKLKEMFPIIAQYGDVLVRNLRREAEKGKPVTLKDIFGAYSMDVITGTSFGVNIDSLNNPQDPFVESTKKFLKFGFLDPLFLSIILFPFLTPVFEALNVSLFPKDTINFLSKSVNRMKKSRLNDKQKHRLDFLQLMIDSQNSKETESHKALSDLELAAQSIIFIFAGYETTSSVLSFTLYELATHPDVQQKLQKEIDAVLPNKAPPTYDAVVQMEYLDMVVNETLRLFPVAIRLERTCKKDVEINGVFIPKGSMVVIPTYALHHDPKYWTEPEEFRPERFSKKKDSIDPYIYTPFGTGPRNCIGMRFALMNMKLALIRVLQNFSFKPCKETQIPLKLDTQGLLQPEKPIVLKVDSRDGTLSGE
# [6] = molecular target: T1, recombinant human CYP2B6; test: C152 demethylation, continuous fluorometric assay, Supersomes SS; type: in vitro ADME; settings: SS(2B6)
# [7] = molecular target: T3, recombinant human CYP2C19; test: as above; type: in vitro ADME; settings: SS(2C19)
# [8] = tested on: recombinant human CYP3A4; test: as above; type: in vitro ADME
# [9] = molecular target: T4, recombinant human CYP3A5; test: as above; type: in vitro ADME; settings: SS(3A5)
# [10] = tested on: human liver microsomes; type: in vitro ADME
# [11] = tested on: CYP2C8; settings: cited from earlier work
# [12] = tested on: CYP2A6; settings: cited from earlier work
# [13] = tested on: CYP2E1; settings: cited from earlier work
# [14] = molecular target: T2, recombinant human CYP3A4
# [15] = molecular target: T4, recombinant human CYP3A5; test: biochemical
# [16] = tested on: CYP2A6; test: 7-hydroxylation of coumarin in HLM; type: in vitro ADME, human; settings: HLM(ODN), added CYP2A6 0
# [17] = HLM(FVT) + added CYP3A5 43 pmol/mg protein (molar ratio 0.125)
# [18] = HLM(ODN) + added CYP3A5 54 pmol/mg protein (molar ratio 0.125)
# [19] = N-demethylation of C152, HLM(ODN), added CYP2A6 0
# [20] = N-demethylation of C152, HLM(ODN), added CYP2A6 54 pmol/mg protein (ratio 0.125)
# [21] = N-demethylation of C152, HLM(ODN), added CYP2A6 108 pmol/mg protein (ratio 0.25)
# [22] = N-demethylation of C152, HLM(ODN), added CYP2A6 216 pmol/mg protein (ratio 0.5)
# [23] = N-demethylation of C152, HLM(ODN), added CYP2A6 433 pmol/mg protein (ratio 1)
structure (smiles),measurement,setting,value
Clc1ccc(Cc2ccncc2)cc1,Maximal inhibition,[1]; HLM(FVT)+CYP3A5 (12.5% of total P450),89 ± 8%
same,Maximal inhibition,[1]; HLM(FVT),79 ± 17%
same,Maximal inhibition,[1]; HLM(IHG),90 ± 3%
same,Maximal inhibition,[1]; HLM(LBA),88 ± 12%
same,Maximal inhibition,[1]; HLM(LFJ),84 ± 23%
same,Maximal inhibition,[1]; HLM(NQO),92 ± 4%
same,Maximal inhibition,[1]; HLM(ODN)+CYP3A5 (12.5% of total P450),70 ± 3%
same,Maximal inhibition,[1]; HLM(ODN),91 ± 2%
same,IC50,[2],0.035 ± 0.01 µM
same,Maximal inhibition,"[2]; SS(2B6), 30 μM C152",95 ± 3%
same,IC50,[3],0.225 ± 0.073 µM
same,IC50,[4],0.215 ± 0.118 µM
"CC[C@@]1(c2ccccc2)NC(=O)N(Cc2ccccc2)C1=O [(+)-N-3-Benzylnirvanol, (S)-(+)-N-3-benzylnirvanol]",Maximal inhibition ((+)-N-3-Benzylnirvanol),[1]; HLM(FVT),62 ± 9%
same,Maximal inhibition ((+)-N-3-Benzylnirvanol),[1]; HLM(IHG),47 ± 12%
same,Maximal inhibition ((+)-N-3-Benzylnirvanol),[1]; HLM(LBA)+CYP2E1,78 ± 36%
same,Maximal inhibition ((+)-N-3-Benzylnirvanol),[1]; HLM(LBA),57 ± 10%
same,Maximal inhibition ((+)-N-3-Benzylnirvanol),[1]; HLM(LFJ)+CYP2E1,95 ± 6%
same,Maximal inhibition ((+)-N-3-Benzylnirvanol),[1]; HLM(LFJ),79 ± 22%
same,Maximal inhibition ((+)-N-3-Benzylnirvanol),[1]; HLM(NQO),78 ± 43%
same,Maximal inhibition ((+)-N-3-Benzylnirvanol),[1]; HLM(ODN),65 ± 4%
same,IC50,[1]; HLM(FVT),11 ± 4 µM
same,IC50,[1]; HLM(IHG),16 ± 2 µM
same,IC50,[1]; HLM(LBA)+CYP2E1,26 ± 10 µM
same,IC50,[1]; HLM(LBA),0.51 ± 0.03 µM
same,IC50,[1]; HLM(LFJ)+CYP2E1,12 ± 2 µM
same,IC50,[1]; HLM(LFJ),0.49 ± 0.12 µM
same,IC50,[1]; HLM(NQO),0.46 ± 0.39 µM
same,IC50,[1]; HLM(ODN),19 ± 15 µM
same,Maximal inhibition ((+)-N-3-Benzylnirvanol),"[2]; SS(2B6), 30 μM C152",81 ± 7%
same,IC50,"[2]; read-out: IC50 ((+)-N-3-Benzylnirvanol), SS(2B6), 30 μM C152",8.5 ± 2.3 µM
same,Maximal inhibition ((+)-N-3-Benzylnirvanol),"[3]; SS(3A4), 30 μM C152",59 ± 10%
same,IC50,"[3]; read-out: IC50 ((+)-N-3-Benzylnirvanol), SS(3A4), 30 μM C152",27 ± 3 µM
same,Maximal inhibition ((+)-N-3-Benzylnirvanol),[5],78 ± 21%
same,IC50,[5]; read-out: IC50 ((+)-N-3-Benzylnirvanol),6.6 ± 1.5 µM
"CN(C)c1ccc2c(C(F)(F)F)cc(=O)oc2c1 [C152, 7-Dimethylamino-4-trifluromethylcoumarin]",S50,[6],1.8 ± 0.2 µM
same,Vmax,[6],44.2 ± 14.8 min⁻¹
same,S50,[7],5.7 ± 1.1 µM
same,Vmax,[7],8.3 ± 3.4 min⁻¹
same,N (the Hill coefficient),[8]; SS(3A4),1.61 ± 0.24
same,S50,[8]; SS(3A4),4.5 ± 1.2 µM
same,Vmax,[8]; SS(3A4),23.8 ± 4.2 min⁻¹
same,N (the Hill coefficient),[8]; SS(3A4)+CYP2E1,1.28 ± 0.31
same,S50,[8]; SS(3A4)+CYP2E1,10.2 ± 2.8 µM
same,Vmax,[8]; SS(3A4)+CYP2E1,34.0 ± 4.6 min⁻¹
same,S50,[9],16.4 ± 4.8 µM
same,Vmax,[9],8.8 ± 1.0 min⁻¹
same,N (the Hill coefficient),[10]; [17],1.41 ± 0.66
same,S50,[10]; [17],1.73 ± 0.66 µM
same,Vmax,[10]; [17],20.9 ± 5.7 min⁻¹
same,N (the Hill coefficient),[10]; HLM(FVT)+CYP2E1,1.28 ± 0.33
same,S50,[10]; HLM(FVT)+CYP2E1,18.9 ± 1.2 µM
same,Vmax,[10]; HLM(FVT)+CYP2E1,20.6 ± 1.3 min⁻¹
same,N (the Hill coefficient),"[10]; HLM(FVT), intact",1.49 ± 0.67
same,S50,"[10]; HLM(FVT), intact",14.2 ± 1.0 µM
same,Vmax,"[10]; HLM(FVT), intact",33.6 ± 2.1 min⁻¹
same,N (the Hill coefficient),"[10]; HLM(IHG), intact",1.03 ± 0.09
same,S50,"[10]; HLM(IHG), intact",4.7 ± 2.7 µM
same,Vmax,"[10]; HLM(IHG), intact",46.3 ± 3.8 min⁻¹
same,N (the Hill coefficient),[10]; HLM(LBA)+CYP2E1,1.14 ± 0.26
same,S50,[10]; HLM(LBA)+CYP2E1,8.8 ± 2.1 µM
same,Vmax,[10]; HLM(LBA)+CYP2E1,62.6 ± 5.6 min⁻¹
same,N (the Hill coefficient),"[10]; HLM(LBA), intact",1.76 ± 0.33
same,S50,"[10]; HLM(LBA), intact",4.4 ± 1.5 µM
same,Vmax,"[10]; HLM(LBA), intact",75.0 ± 10.6 min⁻¹
same,N (the Hill coefficient),[10]; HLM(LFJ)+CYP2E1,1.37 ± 0.44
same,S50,[10]; HLM(LFJ)+CYP2E1,11.6 ± 2.8 µM
same,Vmax,[10]; HLM(LFJ)+CYP2E1,44.7 ± 5.9 min⁻¹
same,N (the Hill coefficient),"[10]; HLM(LFJ), intact",1.94 ± 0.51
same,S50,"[10]; HLM(LFJ), intact",4.8 ± 1.2 µM
same,Vmax,"[10]; HLM(LFJ), intact",47.8 ± 3.2 min⁻¹
same,N (the Hill coefficient),"[10]; HLM(NQO), intact",1.03 ± 0.05
same,S50,"[10]; HLM(NQO), intact",3.7 ± 1.9 µM
same,Vmax,"[10]; HLM(NQO), intact",29.9 ± 3.6 min⁻¹
same,N (the Hill coefficient),[10]; [18],1.73 ± 0.69
same,S50,[10]; [18],1.83 ± 0.96 µM
same,Vmax,[10]; [18],22.4 ± 1.3 min⁻¹
same,N (the Hill coefficient),"[10]; HLM(ODN), intact",1.40 ± 0.17
same,S50,"[10]; HLM(ODN), intact",3.3 ± 0.5 µM and 3.29 ± 0.53 µM
same,Vmax,"[10]; HLM(ODN), intact",37.1 ± 10.2 min⁻¹
same,N (the Hill coefficient),[10]; HLM(S9)+CYP2E1,1.16 ± 0.37
same,S50,[10]; HLM(S9)+CYP2E1,3.2 ± 1.5 µM
same,Vmax,[10]; HLM(S9)+CYP2E1,6.6 ± 0.8 min⁻¹
same,N (the Hill coefficient),"[10]; HLM(S9), intact",1.27 ± 0.25
same,S50,"[10]; HLM(S9), intact",5.5 ± 2.9 µM
same,Vmax,"[10]; HLM(S9), intact",17.8 ± 4.6 min⁻¹
same,Km,[10]; [19],3.29 ± 0.53 µM
same,N,[10]; [19],1.40 ± 0.17
same,Vmax,[10]; [19],37.1 ± 10.2 min⁻¹
same,Km,[10]; [20],11.4 ± 0.2 µM
same,N,[10]; [20],1.30 ± 0.21
same,Vmax,[10]; [20],29.1 ± 1.3 min⁻¹
same,Km,[10]; [21],4.15 ± 1.33 µM
same,N,[10]; [21],1.04 ± 0.05
same,Vmax,[10]; [21],60.1 ± 10.9 min⁻¹
same,Km,[10]; [22],6.88 ± 2.47 µM
same,N,[10]; [22],1.14 ± 0.23
same,Vmax,[10]; [22],56.2 ± 4.9 min⁻¹
same,Km,[10]; [23],4.57 ± 2.57 µM
same,N,[10]; [23],1.38 ± 0.24
same,Vmax,[10]; [23],75.3 ± 25.2 min⁻¹
same,S50,[11],12 ± 6 µM
same,turnover,[11],2.6 ± 0.8 min⁻¹
same,ability of CYP2A6 to catalyze demethylation of C152,[12],lacks any ability to catalyze the demethylation of C152
same,activity of CYP2E1 with C152,[13],do not exhibit any activity
Clc1ccccc1C(c1ccccc1)(c1ccccc1)n1ccnc1 [Clotrimazole],IC50 with CYP3A4 lower than the values observed with CYP2B6 and CYP2C19,[14],1–2 orders of magnitude
same,IC50,[15],0.164 ± 0.039 µM
same,IC50,"[4]; read-out: IC50 (Clotrimazole), SS(2C19), 30 μM C152",0.202 ± 0.113 µM
"O=c1ccc2ccccc2o1 [Coumarin, coumarin]",N,[16],1.66 ± 0.41
same,Vmax,[16],5.6 ± 0.5 min⁻¹
